pIC50: −log10 of the molar value.
Assays:
Experiment in all cases: MMP inhibition assay, fluorogenic substrate FS-6
Format in all cases: biochemical
Conditions in all cases: substrate FS-6 (Mca-Lys-Pro-Leu-Gly-Leu-Dpa-Ala-Arg-NH2), enzyme and inhibitor incubated 4 h at 25° C., triplicate
[1] = target: MMP-13 (Homo sapiens, UniProt P45452)
Experimental: (§1) As reported therein, the inhibitory activity of the compounds of the invention was evaluated on the known fluorogenic substrate (Mca-Lys-Pro-Leu-Gly-Leu-Dpa-Ala-Arg-NH2), shortly referred to as FS-6 (see, as a reference, U. Neumann, Analytical Biochem. 2004, 328, 166-173).
(§2) Recombinant human pro-MMP-2 was supplied by Prof. Gillian Murphy (Department of Oncology, University of Cambridge, UK), while pro-MMP-13 and pro-MMP-14 were purchased from Calbiochem. […] Pro-MMP-14 was activated with trypsin 5 μg/ml for 15 min at 37° C. followed by soybean trypsin inhibitor (SBTI) 23 μg/ml. For assay measurements, the inhibitor stock solutions (DMSO, 100 mM) were further diluted, at seven different concentrations (0.01 nM-100 μM) for each MMP in the fluorimetric assay buffer (FAB: Tris 50 mM, pH=7.5, NaCl 150 mM, CaCl2 10 mM, Brij 35 0.05% and DMSO 1%). Activated enzyme (final concentration 2.9 nM for MMP-2, 1 nM for MMP-14, 0.33 nM for MMP-13) and inhibitor solutions were incubated in the assay buffer for 4 h at 25° C. After the addition of 200 μM solution of the fluorogenic substrate Mca-Lys-Pro-Leu-Gly-Leu-Dpa-Ala-Arg-NH2 (Bachem) (see, for a reference, Neumann, U.; Kubota, H.; Frei, K.; Ganu, V.; Leppert, D. Anal. Biochem. 2004, 328, 166) for all of the enzymes in DMSO (final concentration 2 μM), the hydrolysis was monitored every 15 sec. for 20 min recording the increase in fluorescence (λex=325 nm, λem=395 nm) using a Molecular Device SpectraMax Gemini XS plate reader.
(§3) The assays were performed in triplicate, in a total volume of 200 μl per well, in 96-well microtitre plates (Corning, black, NBS). Control wells lack inhibitor. The MMP inhibition activity was expressed in relative fluorescent units (RFU). Percent of inhibition was calculated from control reactions without the inhibitor. IC50 was determined using the formula: Vi/Vo=1/(1+[I]/IC50), where Vi is the initial velocity of substrate cleavage in the presence of the inhibitor at concentration [I] and Vo is the initial velocity in the absence of the inhibitor. Results were analyzed using SoftMax Pro software and GraFit software.

[2] = target: T1, MMP-2 (Homo sapiens, UniProt P08253)
T1 construct: Prof; Gillian Murphy (Department of Oncology, University of Cambridge, UK)
T1 sequence (P08253 110-660): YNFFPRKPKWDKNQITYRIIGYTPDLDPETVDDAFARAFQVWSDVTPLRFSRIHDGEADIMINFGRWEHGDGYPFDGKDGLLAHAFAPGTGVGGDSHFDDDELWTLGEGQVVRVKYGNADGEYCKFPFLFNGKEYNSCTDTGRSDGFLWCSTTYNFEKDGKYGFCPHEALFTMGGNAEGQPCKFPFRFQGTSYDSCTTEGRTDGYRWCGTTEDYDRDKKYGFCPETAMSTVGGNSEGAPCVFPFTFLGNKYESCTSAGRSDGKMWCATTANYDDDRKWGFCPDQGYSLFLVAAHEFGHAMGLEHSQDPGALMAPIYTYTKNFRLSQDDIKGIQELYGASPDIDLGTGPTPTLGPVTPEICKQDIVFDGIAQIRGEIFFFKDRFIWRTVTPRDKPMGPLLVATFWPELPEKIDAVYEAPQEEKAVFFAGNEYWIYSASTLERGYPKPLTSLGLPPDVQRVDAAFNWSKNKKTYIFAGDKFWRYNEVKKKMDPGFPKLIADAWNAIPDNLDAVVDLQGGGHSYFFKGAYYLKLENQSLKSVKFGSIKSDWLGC
Experimental: as §1, §2, §3

[3] = target: T2, MMP-14 (Homo sapiens, UniProt P50281)
T2 construct: purchased Calbiochem
Experimental: as §1, §2, §3

Row | pIC50 [1] | pIC50 [2] | pIC50 [3] | SMILES
1 | 8.71 | 8.44 | – | O=C(NCC[C@H](C(=O)NO)N(OCCOCCN1CCN(C(=O)c2cccc(C(=O)N3CCN(CCOCCON([C@H](CCNC(=O)OCc4ccccc4)C(=O)NO)S(=O)(=O)c4ccc(-c5ccccc5)cc4)CC3)c2)CC1)S(=O)(=O)c1ccc(-c2ccccc2)cc1)OCc1ccccc1 [2b - example 17]
2 | 8.62 | 8.43 | 7.51 | O=C(CCCNC(=O)c1cccc(C(=O)NCCCC(=O)NCC[C@@H](NS(=O)(=O)c2ccc(-c3ccccc3)cc2)C(=O)NO)c1)NCC[C@@H](NS(=O)(=O)c1ccc(-c2ccccc2)cc1)C(=O)NO [1b - example 16]

— patent publication US20110124653A1, “ARYL-SULPHONAMIDIC DIMERS AS METALLOPROTEASES INHIBITORS” (BRACCO IMAGING S.P.A., priority 2008, published 2011)
